Measurements published in article PMC8296708, “The pan HDAC inhibitor Givinostat improves muscle function and histological parameters in two Duchenne muscular dystrophy murine models expressing different haplotypes of the LTBP4 gene” (Skeletal Muscle, 2021).

How the values were obtained:
plasma miRNA of mdx mice = test: Whole-genome plasma miRNA expression profiling (small RNA sequencing) in mdx mice; assay type: in vivo, mouse (C57BL/10ScSn-Dmd^mdx/J); settings: Givinostat 37.5 mg/kg vs vehicle
Description: Blood samples were taken from the retro-orbital plexus of mice maintained under isoflurane anesthesia. Blood was placed in tubes containing 50 μL (for 1 mL of total blood) of EDTA ([…]) and then it was centrifuged at 13,300 rpm at + 4 °C for 10 min. Plasma was separated (400–500 μL) and immediately frozen in dry ice and stored at − 80 °C until analysis.
Thirteen mouse plasma samples (naive wt, n = 3; naive mdx, n = 3; vehicle, n = 4; Givinostat 37.5 mg/kg, n = 3) were delivered to Biogazelle in dry ice.
RNA was isolated using the miRNeasy Serum/Plasma Kit (Qiagen) following the manufacturer’s instructions.
Libraries for small RNA sequencing were prepared using the NEBNext small RNA library prep kit (New England Biolabs) according to the manufacturer’s instructions. […] Finally, the resulting small RNA pools were concentrated via ethanol precipitation and quantified using the Qubit 2.0 fluorometer (Thermo Fisher Scientific) prior to sequencing with read length of 75 bp on a NextSeq 500 sequencer (Illumina).
Sequencing reads were filtered based on stringent read quality control. After adapter trimming with Trimmomatic, reads were collapsed and mapped to the reference genome (GRCm38) using Bowtie. Reads up to 25 nucleotides are mapped with no mismatches, while longer reads (mainly from RNA species other than miRNAs) are mapped allowing a maximum of 2 mismatches. […]

mdx mice = test: Myofiber cross-sectional area (CSA) in mdx mice; assay type: in vivo, mouse (C57BL/10ScSn-Dmd^mdx/J)
Description: Tibialis anterior (TA), gastrocnemius (GAS), DIA, and heart were collected from mice maintained under isoflurane anesthesia and sacrificed by cervical dislocation. These muscles were collected from C57BL/10J wt and mdx (5 mice/group) at the end of treatments and from DBA/2J wt and D2.B10 mice (5 mice/group) at two different time points to be examined by a pathologist (for more details see Additional Table 1). Due to the results obtained by the functional tests, muscles from only some treatment groups were analyzed in both DMD models (see Additional Table 1). All the collected muscles were fixed in 10% buffered formalin solution (Bio-optica, Milan, Italy) at + 4 °C for at least 48 h. After fixation, muscular samples were transversely trimmed, caged, and paraffin embedded overnight with an Automated Vacuum Tissue Processor Floor (ETP, Histo-Line Laboratories) and included in paraffin blocks. Serial transverse cross-sections (4 μm thick) were cut with a microtome (Leica RM 2255), collected onto uncoated glass slides, and stained using a standard protocol for hematoxylin and eosin (Mayer hematoxylin & Aqueous G Eosin 1%, Bio-Optica) and Sirius Red staining (Direct Red 80, Sigma-Aldrich). For the image analysis and quantitation, hematoxylin and eosin- and Sirius Red-stained slides were examined with an Olympus BX51 light microscope. From each sample, 1 to 3 random microphotographs at the magnification of × 4 and × 10 (TA, GAS and heart) or × 20 (DIA) were collected using Image-Pro Plus system. The digital images were processed by a pathologist using ImageJ software (U.S. National Institutes of Health, Bethesda, MD, USA). To quantify CSA and centralized nuclei (%) on hematoxylin and eosin-stained sections, one hundred myofibers were manually measured for each muscle/mouse using a tablet pen (Wacom Intruos) and analyzed by the ImageJ software after a linear calibration of 150 μm. The fibrotic area, corresponding to the area stained in red, was compared to the total area of the tissue section, and the results were expressed as percentage fibrosis. The % of fibrosis of muscles in the different treatment groups was expressed by averaging the three values obtained from each muscle.
The deciles of the CSA of the animals treated with Givinostat at the different doses were plotted against the corresponding deciles of the vehicle-treated mice and a linear regression analysis was performed on natural [CSAtreated = b CSAcontrol + a] and log_transformed data [log(CSAtreated) = log(a) + b log(CSAcontrol)]. […] In case of untransformed data, this means that the effect of Givinostat treatment is additive and any decile of the CSAtreatment distribution may be derived from the control data summing up a constant quantity (S) to each fiber AREA of the control group (CSAtreated = CSAcontrol + S). In case of log_transformed data, the effect of Givinostat has to be considered as a multiplicative factor on any generic fiber of the muscle under evaluation, whose size, after the treatment, results K times larger in comparison to the control group value (CSAtreated […] = K × CSAcontrol, with K = 10^a). The S or K parameter values were then determined through an iterative estimation procedure, based on sum of squares (SSQ) minimization, directly comparing the CSA distribution observed in treated animals with that obtained summing up the S value or multiplying by K the CSA values of the control group.

## CCN(CC)Cc1ccc2cc(COC(=O)Nc3ccc(C(=O)NO)cc3)ccc2c1 [Givinostat]
Plasma miRNA of mdx mice; T16, significant upregulation
  miR-92b-3p in plasma, FC: 2.130
Plasma miRNA of mdx mice; T16, significantly upregulated
  miR-449a-5p in plasma, FC: 4.388
Mdx mice; 37.5 mg/kg (same as vehicle)
  DIA fiber CSA, peak value: 550 μm^2
Mdx mice; 37.5 mg/kg, after 105 days (vehicle peak 500)
  GAS fiber CSA, peak of distribution: 1100 μm^2
Mdx mice; 37.5 mg/kg, multiplicative model
  K, multiplicative factor on GAS fiber CSA vs vehicle: 1.72
Mdx mice; 10 and 37.5 mg/kg (vehicle 700)
  TA fiber CSA, peak value: 900 μm^2
Mdx mice; additive model
  S, shift effect parameter on TA CSA vs vehicle: 140 μm^2
